Molecules are shown by their SMILES.

The source of these data is patent US12428406B2 (PMV Pharmaceuticals, Inc., priority 2019, dated 2025).

In the assay the target is T1, p53 Y220C (Homo sapiens, UniProt P04637, Y220C).
T1 construct: The recombinant protein was a truncation mutant containing only amino acids 94-312 of p53; made in house; host or cells: E. coli
T1 sequence (P04637 94-312, change not shown): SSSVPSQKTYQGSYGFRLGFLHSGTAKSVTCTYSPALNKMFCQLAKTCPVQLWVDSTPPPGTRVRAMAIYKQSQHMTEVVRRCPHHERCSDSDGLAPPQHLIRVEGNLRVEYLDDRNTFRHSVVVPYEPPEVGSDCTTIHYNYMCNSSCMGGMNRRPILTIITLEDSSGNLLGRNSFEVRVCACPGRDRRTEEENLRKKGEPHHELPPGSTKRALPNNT
The assay can be described thus: In vitro DNA binding activity assay (HTRF / TR-FRET): stabilization of p53 Y220C and increase of its DNA binding activity. The note with it: recombinant His-tagged p53 Y220C DNA binding domain (aa 94-312), biotin-labeled consensus DNA, incubated at 27° C. or 29° C. for 60 min. It counts as biochemical. The gist of the method:
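Stabilization of the mutant is inferred from increased binding of His-tagged p53 Y220C to a biotin-labeled consensus DNA, detected by HTRF with europium-streptavidin and APC-anti-His antibody. The concentration giving a 50% rise over compound-free binding is reported as SC150.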
Background: TR-FRET usually uses a lanthanide donor and a delayed reading to cut background.
On to `COc1cc(S(=O)(=O)NC(C)=O)ccc1NCC#Cc1cc2c(N[C@H]3CCN(C)C[C@H]3F)cccc2n1CC(F)(F)F` [Compound 838A, N-(4-{[3-(4-{[(3R,4S)-3-fluoro-1-methylpiperidin-4-yl]amino}-1-(2,2,2-trifluoroethyl)-1H-indol-2-yl)prop-2-yn-1-yl]amino}-3-methoxybenzenesulfonyl)acetamide], for which the “SC150 (concentration of the compound required to increase the DNA binding activity by 50%)” value is recorded as “+ (+ = 0 μM ≤ SC150 < 0.05 μM)”.

For `COc1cc(S(N)(=O)=O)ccc1NCC#Cc1cc2c(NC3CC4(COC4)C3)cccc2n1CC(F)(F)F` [Compound 18A], the “SC150 (concentration of the compound required to increase the DNA binding activity by 50%)” value is “+ (+ = 0 μM ≤ SC150 < 0.05 μM)”. Consider `NS(=O)(=O)c1ccc(NCC#Cc2cc3c(N[C@H]4CC[C@H](N5CCC6(CC5)COC6)CC4)cccc3n2CC(F)(F)F)c(OCF)c1` [Compound 381A, 3-(fluoromethoxy)-4-{[3-(4-{[(1R,4R)-4-{2-oxa-7-azaspiro[3.5]nonan-7-yl}cyclohexyl]amino}-1-(2,2,2-trifluoroethyl)-1H-indol-2-yl)prop-2-yn-1-yl]amino}benzene-1-sulfonamide], for which the “SC150 (concentration of the compound required to increase the DNA binding activity by 50%)” value is “+ (+ = 0 μM ≤ SC150 < 0.05 μM)”. For `CCOc1cc(S(C)(=O)=O)ccc1NCC#Cc1cc2c(N[C@H]3CC[C@@H](N(C)C)CC3)cccc2n1CC(F)(F)F` [Compound 96A, (1S,4S)-N^4-(2-{3-[(2-ethoxy-4-methane-sulfonylphenyl)amino]prop-1-yn-1-yl}-1-(2,2,2-trifluoroethyl)-1H-indol-4-yl)-N^1,N^1-dimethylcyclohexane-1,4-diamine] the value was “++ (++ = 0.05 μM ≤ SC150 < 0.1 μM)”; for `COc1cc(S(=O)(=O)O)ccc1NCC#Cc1cc2c(N[C@@H]3CCN(C)C[C@@H]3F)cccc2n1CC(F)(F)F` [Compound 931A, 4-{[3-(4-{[(3S,4R)-3-fluoro-1-methylpiperidin-4-yl]amino}-1-(2,2,2-trifluoroethyl)-1H-indol-2-yl)prop-2-yn-1-yl]amino}-3-methoxybenzene-1-sulfonic acid], “+ (+ = 0 μM ≤ SC150 < 0.05 μM)”; for `COc1cc(S(C)(=O)=O)ccc1NCC#Cc1cc2c(NC(=O)Nc3ccncc3)cccc2n1CC(F)(F)F` [Compound 11A, 1-(2-(3-((2-methoxy-4-(methylsulfonyl)phenyl)amino)prop-1-yn-1-yl)-1-(2,2,2-trifluoroethyl)-1H-indol-4-yl)-3-(pyridin-4-yl)urea], “++++ (++++ = 0.2 μM ≤ SC150 < 1 μM)”. To `COc1cc(S(C)(=O)=O)ccc1NCC#Cc1cc2c(NC3CCN(CC4COC(=O)O4)CC3)cccc2n1CC(F)(F)F` (stereo not shown) [Compound 545A, 4-({4-[(2-{3-[(4-methanesulfonyl-2-methoxyphenyl)amino]prop-1-yn-1-yl}-1-(2,2,2-trifluoroethyl)-1H-indol-4-yl)amino]piperidin-1-yl}methyl)-1,3-dioxolan-2-one] belongs “+ (+ = 0 μM ≤ SC150 < 0.05 μM)”; to `CNC(=O)c1ccc(NCC#Cc2cc3c(NC4CCN(CC(O)COC)CC4)cccc3n2CC(F)(F)F)c(OCCF)c1` (stereo not shown) [Compound 652A, 3-(2-fluoroethoxy)-4-{[3-(4-{[1-(2-hydroxy-3-methoxypropyl)piperidin-4-yl]amino}-1-(2,2,2-trifluoroethyl)-1H-indol-2-yl)prop-2-yn-1-yl]amino}-N-methylbenzamide], “+ (+ = 0 μM ≤ SC150 < 0.05 μM)”. For `COc1cc(S(C)(=O)=O)ccc1NCC#Cc1cc2c(N[C@H]3CCC[C@@H](O)C3)cccc2n1CC(F)(F)F` (relative stereo) [Compound 30A, rel-(1R,3S)-3-[(2-{3-[(4-methanesulfonyl-2-methoxyphenyl)amino]prop-1-yn-1-yl}-1-(2,2,2-trifluoroethyl)-1H-indol-4-yl)amino] cyclohexan-1-ol] the value was “+ (+ = 0 μM ≤ SC150 < 0.05 μM)”; for `COc1cc(C(=O)NC[C@H](O)CO)ccc1NCC#Cc1cc2c(N[C@@H]3CCN(C)C[C@@H]3F)cccc2n1CC(F)(F)F` [Compound 964A, N-[(2S)-2,3-dihydroxypropyl]-4-{[3-(4-{[(3S,4R)-3-fluoro-1-methylpiperidin-4-yl]amino}-1-(2,2,2-trifluoroethyl)-1H-indol-2-yl)prop-2-yn-1-yl]amino}-3-methoxybenzamide], “+ (+ = 0 μM ≤ SC150 < 0.05 μM)”. Turning to `CCOc1cc(S(C)(=O)=O)ccc1NCC#Cc1cc2c(N[C@H]3CC[C@H](N(C)C)CC3)cccc2n1CC(F)(F)F` [Compound 95A, (1R,4R)—N^4-(2-{3-[(2-ethoxy-4-methanesulfonylphenyl)amino]prop-1-yn-1-yl}-1-(2,2,2-trifluoroethyl)-1H-indol-4-yl)-N^1,N^1-dimethylcyclohexane-1,4-diamine], the “SC150 (concentration of the compound required to increase the DNA binding activity by 50%)” value was “+ (+ = 0 μM ≤ SC150 < 0.05 μM)”. Regarding `CNC(=O)c1ccc(NCC#Cc2cc3c(N[C@H]4CC[C@H](N5CCOCC5)CC4)cccc3n2CC(F)(F)F)c(OC)c1` [Compound 172A, 3-methoxy-N-methyl-4-{[3-(4-{[(1R,4R)-4-(morpholin-4-yl)cyclohexyl]amino}-1-(2,2,2-trifluoroethyl)-1H-indol-2-yl)prop-2-yn-1-yl]amino}benzamide], the “SC150 (concentration of the compound required to increase the DNA binding activity by 50%)” value is listed as “+ (+ = 0 μM ≤ SC150 < 0.05 μM)”.

On to `CNC(=O)c1ccc(NCC#Cc2cc3c(N[C@H]4CC[C@H](N5CC6(CCOCC6)C5)CC4)cccc3n2CC(F)(F)F)c(OC)c1` [Compound 295A, 3-methoxy-N-methyl-4-{[3-(4-{[(1R,4R)-4-{7-oxa-2-azaspiro[3.5]nonan-2-yl}cyclo-hexyl]amino}-1-(2,2,2-trifluoroethyl)-1H-indol-2-yl)prop-2-yn-1-yl]amino}benzamide], for which the “SC150 (concentration of the compound required to increase the DNA binding activity by 50%)” value is “+ (+ = 0 μM ≤ SC150 < 0.05 μM)”. For `CS(=O)(=O)c1ccc(NCC#Cc2cc3c(N[C@H]4CC[C@H](N5CC6(COC6)C5)CC4)cccc3n2CC(F)(F)F)c(OC(F)(F)F)c1` [Compound 285A, 2-(3-{[4-methanesulfonyl-2-(trifluoromethoxy)phenyl]amino}prop-1-yn-1-yl)-N-[(1R,4R)-4-{2-oxa-6-azaspiro[3.3]heptan-6-yl}cyclohexyl]-1-(2,2,2-trifluoroethyl)-1H-indol-4-amine] the value was “+ (+ = 0 μM ≤ SC150 < 0.05 μM)”. To `COc1cc(C(N)=O)ccc1NCC#Cc1cc2c(NC(=O)NC3CCN(C)CC3)cccc2n1CC(F)(F)F` [Compound 7A, 3-methoxy-4-{[3-(4-{[(1-methylpiperidin-4-yl)carbamoyl]amino}-1-(2,2,2-trifluoroethyl)-1H-indol-2-yl)prop-2-yn-1-yl]amino}benzamide] belongs “++++ (++++ = 0.2 μM ≤ SC150 < 1 μM)”; to `COc1cc(S(N)(=O)=O)ccc1NCC#Cc1cc2c(N[C@H]3CC[C@H](N4CC5(COC5)C4)CC3)cccc2n1CC(F)(F)F` [Compound 205A, 3-methoxy-4-{[3-(4-{[(1S,4S)-4-{2-oxa-6-azaspiro[3.3]heptan-6-yl}cyclohexyl]amino}-1-(2,2,2-trifluoroethyl)-1H-indol-2-yl)prop-2-yn-1-yl]amino}benzene-1-sulfonamide], “+ (+ = 0 μM ≤ SC150 < 0.05 μM)”; to `CNC(=O)c1ccc(NCC#Cc2cc3c(N[C@H]4CC[C@H](N5CC6(COC6)C5)CC4)cccc3n2CC(F)(F)F)c(OCC#N)c1` [Compound 242A, 3-(cyanomethoxy)-N-methyl-4-{[3-(4-{[(1R,4R)-4-{2-oxa-6-azaspiro[3.3]heptan-6-yl}cyclohexyl]amino}-1-(2,2,2-trifluoroethyl)-1H-indol-2-yl)prop-2-yn-1-yl]amino}benzamide], “+ (+ = 0 μM ≤ SC150 < 0.05 μM)”.

Regarding `COc1cc(S(C)(=O)=O)ccc1NCC#Cc1cc2c(NC3CCC(N(C)C)CC3F)cccc2n1CC(F)(F)F` (stereo not shown) [Compound 41A], the “SC150 (concentration of the compound required to increase the DNA binding activity by 50%)” value is listed as “+ (+ = 0 μM ≤ SC150 < 0.05 μM)”. For `CCOc1cc(S(C)(=O)=O)ccc1NCC#Cc1cc2c(N[C@H]3CC[C@@H](N4CC5CC(C4)O5)CC3)cccc2n1CC(F)(F)F` [Compound 405A, 2-{3-[(2-ethoxy-4-mcthanesulfonyl-phenyl)amino]prop-1-yn-1-yl}-N-[(1S,4S)-4-{6-oxa-3-azabicyclo[3.1.1]heptan-3-yl}cyclohexyl]-1-(2,2,2-trifluoroethyl)-1H-indol-4-amine] the value was “+ (+ = 0 μM ≤ SC150 < 0.05 μM)”. On to `CCn1ccc(C(=O)NCC#Cc2cc3c(N[C@@H]4CCN(C)C[C@@H]4F)cccc3n2CC(F)(F)F)c1` [Compound 954A, 1-ethyl-N-[3-(4-{[(3S,4R)-3-fluoro-1-methylpiperidin-4-yl]amino}-1-(2,2,2-trifluoroethyl)-1H-indol-2-yl)prop-2-yn-1-yl]-1H-pyrrole-3-carboxamide], for which the “SC150 (concentration of the compound required to increase the DNA binding activity by 50%)” value is “+ (+ = 0 μM ≤ SC150 < 0.05 μM)”.

As to `COc1cc(S(C)(=O)=O)ccc1NCC#Cc1cc2c(NC3CCN([C@H]4CCOC4)CC3)cccc2n1CC(F)(F)F` [Compound 723A, 2-{3-[(4-methanesulfonyl-2-methoxyphenyl)amino]prop-1-yn-1-yl}-N-{1-[(3S)-oxolan-3-yl]piperidin-4-yl}-1-(2,2,2-trifluoroethyl)-1H-indol-4-amine], the “SC150 (concentration of the compound required to increase the DNA binding activity by 50%)” value was “+ (+ = 0 μM ≤ SC150 < 0.05 μM)”. Regarding `COCCN(C)[C@H]1CC[C@H](Nc2cccc3c2cc(C#CCNc2ccc(S(N)(=O)=O)cc2OCC#N)n3CC(F)(F)F)CC1` [Compound 164A, 3-(cyanomethoxy)-4-{[3-(4-{[(1R,4R)-4-[(2-methoxyethyl) (methyl)amino]cyclo-hexyl]amino}-1-(2,2,2-trifluoroethyl)-1H-indol-2-yl)prop-2-yn-1-yl]amino}benzene-1-sulfonamide], the “SC150 (concentration of the compound required to increase the DNA binding activity by 50%)” value is “+ (+ = 0 μM ≤ SC150 < 0.05 μM)”.
